Results published in patent US20220362399A1, “COMPOSITIONS AND ARTICLES COMPRISING (NANO)DIAMOND PARTICLES” (Debina Diagnostics, Inc., priority 2019, published 2022).

Key:
CHOP and BiP [1] = test: ER-stress biomarkers (Western blot), HepG-2; format: cell-based, human; conditions: tunicamycin 25 μg/mL
Description: (§1) HepG-2 cells and HUVEC were treated (or not) with 0.1 mg/mL FDP-NV-BSA as described above. Treatment with vincristine (200 μg/mL) was used as a positive control for apoptosis, and with tunicamycin (25 μg/mL) as a positive control for ER-stress. A rabbit polyclonal antibody against caspase 3 (Cell Sign. Techn), which recognizes both the cleaved and the non-cleaved protein, was used for apoptosis detection. Rabbit mAb (clone C50B12) against BiP and mouse mAb (clone L63F7) against Chop (both from Cell Sign. Techn) were used for the detection of ER-stress. Equal loading of proteins was verified by membrane stripping and re-probing with an anti-actin mouse monoclonal antibody (Sigma Inc.).

CHOP and BiP [2] = test: ER-stress biomarkers (Western blot), HUVEC; format: cell-based, human; conditions: tunicamycin 25 μg/mL
Description: as §1

HepG-2 cells [3] = test: MTT assay (redox state), HepG-2; format: cell-based, human; conditions: vincristine 50 μg/mL, 24 hours
Description: (§2) The MTT assay was performed as a colorimetric assay using the Cell Proliferation Assay Kit (ThermoFisher Sci), composed of component A (3-(4,5-dimethylthiazol-2-yl)-2,5-diphenyltetrazolium bromide (MTT)) and component B (SDS (sodium dodecyl sulfate)) according to manufacturer's protocol. Briefly, HepG-2 cells and HUVEC were seeded in 96-well plates at a density of 1×10^4 cells per well in media described above for each cell type. Cells were treated or not with FDP-NV-BSA or vincristine (50 μg/mL) for 24 hours. Media (100 μL) were changed to phenol red-free DMEM (Dulbecco's Modified Eagle Medium) (ThermoFisher Sci), containing MTT component A. Plates were incubated for 4 hours, and cells lysed by adding equal volumes of 10% SDS (kit component B). Plates were incubated overnight and read using an ELISA plate reader ELx800 (BioTek, Winooski, Vt., USA) at 562 nm wavelength.

HUVEC [4] = test: MTT assay (redox state), HUVEC; format: cell-based, human; conditions: vincristine 50 μg/mL, 24 hours
Description: as §2

HepG-2 cells [5] = test: Cell counting assay, HepG-2; format: cell-based; conditions: Homo sapiens, HepG2; vincristine 50 μg/mL, 24 hours; read-out: proliferation, % of controls
Description: (§3) Cell counting was performed. The HepG-2 cell line was purchased from American Type Culture Collection (ATTC) (Manassas, Va., USA). Primary HUVEC were purchased from Lonza and used for experiments between the 5th-8th passages. Cells maintained (37° C. at 5% CO2 atmosphere) in their respective culture media as described above. HepG-2 and HUVEC were ‘seeded’ in 96-well plates (2×10^3 per well in 100 μL medium) and treated or not with FDP-NV-BSA for 24 hours. In each experiment, vincristine (50 μg/mL), a cell-cycle proliferation inhibitor, was added as a positive control. At 24 hrs, the medium was removed, the cells were fixed with 4% paraformaldehyde (PFA, ThermoFisher Sci) and the nuclei were stained using DAPI (4′,6-diamino-2-phenylindole, dihydrochloride, ThermoFisher Sci). The plates were analyzed in a fluorescence microscope (Olympus IX81, Olympus, Tokyo, Japan) by imaging 7 observation fields for each well using 100× magnification and DAPI (blue filter) for nuclei visualization, and TRITC (red filter) for FNDP-NV-BSA visualization. The number of viable cells in each field was determined by analysis of DAPI stained nuclei using ImageJ software (National Institutes of Health, Bethesda, Md., USA) with a digitally set-up cell counter.

HUVEC [6] = test: Cell counting assay, HUVEC; format: cell-based; conditions: Homo sapiens, vincristine 50 μg/mL, 24 hours, read-out: proliferation, % of controls
Description: as §3

| Compound | ER-stress protein activation (CHOP and BiP [1]) | ER-stress protein activation (CHOP and BiP [2]) | redox activity, % of normal controls (HepG-2 cells [3]) | redox activity, % of normal controls (HUVEC [4]) | activity at 50 µg/mL (HepG-2 cells [5]) [%] | activity at 50 µg/mL (HUVEC [6]) [%] |
| --- | --- | --- | --- | --- | --- | --- |
| tunicamycin | sensitive | sensitive | – | – | – | – |
| CC[C@]1(O)C[C@H]2CN(CCc3c([nH]c4ccccc34)[C@@](C(=O)OC)(c3cc4c(cc3OC)N(C=O)[C@H]3[C@@](O)(C(=O)OC)[C@H](OC(C)=O)[C@]5(CC)C=CCN6CC[C@]43[C@@H]65)C2)C1 [vincristine] | – | – | 25-30% | 25-30% | 50 | 80 |
